Data reported in the NIST ThermoML archive (doi:10.1016/j.jct.2008.05.014).
± gives the expanded uncertainty stated by the source.

Assay: xn = mol fraction of the nth substance listed
Conditions: Liquid; for speed of sound: Pulse-echo method

CCCCCCCCCCCC [dodecane] + CCCCCCC
Conditions	mass density [kg/m3]	speed of sound [m/s]
292.85 K, 15200 kPa, x2 = 0.4999	–	1334.1 ± 2.4
292.85 K, 15200 kPa, x2 = 0.97	–	1263.4 ± 2.4
292.85 K, 30390 kPa, x2 = 0.4999	–	1411.6 ± 2.4
292.85 K, 30390 kPa, x2 = 0.97	–	1348.3 ± 2.4
292.85 K, 45590 kPa, x2 = 0.4999	–	1480.8 ± 2.4
292.85 K, 60790 kPa, x2 = 0.4999	–	1543.7 ± 2.5
292.85 K, 60790 kPa, x2 = 0.97	–	1490.4 ± 2.5
292.85 K, 75990 kPa, x2 = 0.4999	–	1602.4 ± 2.5
292.85 K, 75990 kPa, x2 = 0.97	–	1552 ± 2.5
292.85 K, 91180 kPa, x2 = 0.4999	–	1656.6 ± 2.5
292.85 K, 91180 kPa, x2 = 0.97	–	1609.5 ± 2.6
292.85 K, 101320 kPa, x2 = 0.4999	–	1690.5 ± 2.6
292.86 K, 15200 kPa, x2 = 0.5003	–	1333.8 ± 2.4
292.86 K, 15200 kPa, x2 = 0.9391	–	1268.7 ± 2.4
292.86 K, 30390 kPa, x2 = 0.1014	–	1449.6 ± 2.4
292.86 K, 30390 kPa, x2 = 0.5003	–	1411.4 ± 2.4
292.86 K, 30410 kPa, x2 = 0.9391	–	1352.9 ± 2.4
292.86 K, 45590 kPa, x2 = 0.1014	–	1516.2 ± 2.4
292.86 K, 45590 kPa, x2 = 0.5003	–	1480.8 ± 2.4
292.86 K, 45590 kPa, x2 = 0.9391	–	1427.3 ± 2.4
292.86 K, 45590 kPa, x2 = 0.97	–	1423.1 ± 2.4
292.86 K, 60790 kPa, x2 = 0.1014	–	1577 ± 2.5
292.86 K, 60790 kPa, x2 = 0.5003	–	1543.8 ± 2.5
292.86 K, 60790 kPa, x2 = 0.9391	–	1494.1 ± 2.5
292.86 K, 75990 kPa, x2 = 0.1014	–	1633.6 ± 2.5
292.86 K, 75990 kPa, x2 = 0.5003	–	1602.5 ± 2.5
292.86 K, 75990 kPa, x2 = 0.9391	–	1555.3 ± 2.5
292.86 K, 91180 kPa, x2 = 0.1014	–	1686.1 ± 2.5
292.86 K, 91180 kPa, x2 = 0.5003	–	1656.8 ± 2.5
292.86 K, 91180 kPa, x2 = 0.9391	–	1612.7 ± 2.6
292.86 K, 101320 kPa, x2 = 0.1014	–	1719.2 ± 2.6
292.86 K, 101320 kPa, x2 = 0.9391	–	1647.3 ± 2.6
292.86 K, 101320 kPa, x2 = 0.97	–	1645.4 ± 2.6
292.87 K, 15200 kPa, x2 = 0	–	1384.9 ± 2.4
292.87 K, 15200 kPa, x2 = 0.1014	–	1375.7 ± 2.4
292.87 K, 15200 kPa, x2 = 0.3007	–	1355.3 ± 2.4
292.87 K, 15200 kPa, x2 = 0.7007	–	1306.2 ± 2.4
292.87 K, 30390 kPa, x2 = 0	–	1457.9 ± 2.4
292.87 K, 30390 kPa, x2 = 0.3007	–	1430.9 ± 2.4
292.87 K, 30390 kPa, x2 = 0.7007	–	1386.2 ± 2.4
292.87 K, 45590 kPa, x2 = 0	–	1524.1 ± 2.4
292.87 K, 45590 kPa, x2 = 0.3007	–	1498.8 ± 2.4
292.87 K, 45590 kPa, x2 = 0.7007	–	1457.9 ± 2.4
292.87 K, 60790 kPa, x2 = 0	–	1584.5 ± 2.5
292.87 K, 60790 kPa, x2 = 0.3007	–	1560.6 ± 2.5
292.87 K, 60790 kPa, x2 = 0.7007	–	1522.8 ± 2.5
292.87 K, 75990 kPa, x2 = 0	–	1640.7 ± 2.5
292.87 K, 75990 kPa, x2 = 0.3007	–	1618.5 ± 2.5
292.87 K, 75990 kPa, x2 = 0.7007	–	1582.4 ± 2.5
292.87 K, 91180 kPa, x2 = 0	–	1692.8 ± 2.5
292.87 K, 91180 kPa, x2 = 0.3007	–	1671.5 ± 2.5
292.87 K, 91180 kPa, x2 = 0.7007	–	1638 ± 2.6
292.87 K, 101320 kPa, x2 = 0	–	1725.8 ± 2.6
292.87 K, 101320 kPa, x2 = 0.3007	–	1705.1 ± 2.6
292.87 K, 101320 kPa, x2 = 0.5003	–	1691 ± 2.6
292.87 K, 101320 kPa, x2 = 0.7007	–	1672.6 ± 2.6
292.87 K, 101320 kPa, x2 = 0.8496	–	1658.6 ± 2.6
292.88 K, 15200 kPa, x2 = 0.8496	–	1284 ± 2.4
292.88 K, 75990 kPa, x2 = 0.8496	–	1566.3 ± 2.5
292.89 K, 101 kPa, x2 = 0	–	1299.5 ± 1.6
292.89 K, 101 kPa, x2 = 0.3002	–	1267.5 ± 1.6
292.89 K, 101 kPa, x2 = 0.3996	–	1255 ± 1.6
292.89 K, 101 kPa, x2 = 0.6	–	1226.8 ± 1.6
292.89 K, 101 kPa, x2 = 0.7002	–	1210.7 ± 1.6
292.89 K, 101 kPa, x2 = 0.8995	–	1174.4 ± 1.6
292.89 K, 30390 kPa, x2 = 0.8496	–	1366.5 ± 2.4
292.89 K, 45590 kPa, x2 = 0.8496	–	1439.7 ± 2.4
292.89 K, 60790 kPa, x2 = 0.8496	–	1505.9 ± 2.5
292.89 K, 91180 kPa, x2 = 0.8496	–	1623.3 ± 2.6
292.9 K, 101 kPa, x2 = 0.8	–	1193.4 ± 1.6
292.91 K, 101 kPa, x2 = 0.1007	–	1289.6 ± 1.6
292.91 K, 101 kPa, x2 = 0.2001	–	1279 ± 1.6
292.91 K, 101 kPa, x2 = 0.5002	–	1241.3 ± 1.6
293.15 K, 101 kPa, x2 = 0	748.921 ± 0.63	–
293.15 K, 101 kPa, x2 = 0.0991	744.788 ± 0.63	–
293.15 K, 101 kPa, x2 = 0.2008	740.186 ± 0.64	–
293.15 K, 101 kPa, x2 = 0.2998	735.319 ± 0.65	–
293.15 K, 101 kPa, x2 = 0.3996	729.97 ± 0.65	–
293.15 K, 101 kPa, x2 = 0.5	724.072 ± 0.66	–
293.15 K, 101 kPa, x2 = 0.6	717.632 ± 0.67	–
293.15 K, 101 kPa, x2 = 0.7005	710.489 ± 0.68	–
293.15 K, 101 kPa, x2 = 0.7995	702.66 ± 0.69	–
293.15 K, 101 kPa, x2 = 0.8486	698.428 ± 0.69	–
293.15 K, 101 kPa, x2 = 0.8988	693.851 ± 0.7	–
293.15 K, 101 kPa, x2 = 0.9498	688.947 ± 0.7	–
298.14 K, 30390 kPa, x2 = 0.97	–	1329.4 ± 2.4
298.14 K, 30410 kPa, x2 = 0.9391	–	1333.2 ± 2.4
298.14 K, 45590 kPa, x2 = 0.9391	–	1408.7 ± 2.4
298.14 K, 45590 kPa, x2 = 0.97	–	1405.4 ± 2.4
298.14 K, 60790 kPa, x2 = 0.9391	–	1476.6 ± 2.5
298.14 K, 60790 kPa, x2 = 0.97	–	1473.9 ± 2.5
298.14 K, 75990 kPa, x2 = 0.97	–	1536.2 ± 2.5
298.14 K, 91180 kPa, x2 = 0.9391	–	1596.4 ± 2.6
298.14 K, 91180 kPa, x2 = 0.97	–	1594.1 ± 2.6
298.14 K, 101320 kPa, x2 = 0.9391	–	1632.6 ± 2.6
298.14 K, 101320 kPa, x2 = 0.97	–	1630.6 ± 2.6
298.15 K, 101 kPa, x2 = 0	745.269 ± 0.63	–
298.15 K, 101 kPa, x2 = 0.0991	741.128 ± 0.64	–
298.15 K, 101 kPa, x2 = 0.2008	736.497 ± 0.64	–
298.15 K, 101 kPa, x2 = 0.2998	731.58 ± 0.65	–
298.15 K, 101 kPa, x2 = 0.5	720.233 ± 0.67	–
298.15 K, 101 kPa, x2 = 0.7005	706.501 ± 0.68	–
298.15 K, 101 kPa, x2 = 0.7995	698.598 ± 0.69	–
298.15 K, 101 kPa, x2 = 0.8486	694.34 ± 0.7	–
298.15 K, 101 kPa, x2 = 0.8988	689.718 ± 0.7	–
298.15 K, 101 kPa, x2 = 0.9498	684.775 ± 0.71	–
298.15 K, 15200 kPa, x2 = 0.5003	–	1314.6 ± 2.4
298.15 K, 15200 kPa, x2 = 0.9391	–	1247.1 ± 2.4
298.15 K, 15200 kPa, x2 = 0.97	–	1242.9 ± 2.4
298.15 K, 30390 kPa, x2 = 0.4999	–	1393.4 ± 2.4
298.15 K, 30390 kPa, x2 = 0.5003	–	1393.3 ± 2.4
298.15 K, 45590 kPa, x2 = 0.1014	–	1499.1 ± 2.4
298.15 K, 45590 kPa, x2 = 0.4999	–	1464 ± 2.4
298.15 K, 45590 kPa, x2 = 0.5003	–	1464.1 ± 2.4
298.15 K, 45590 kPa, x2 = 0.7007	–	1440.8 ± 2.4
298.15 K, 60790 kPa, x2 = 0.1014	–	1560.5 ± 2.5
298.15 K, 60790 kPa, x2 = 0.3007	–	1544.4 ± 2.5
298.15 K, 60790 kPa, x2 = 0.4999	–	1527.7 ± 2.5
298.15 K, 60790 kPa, x2 = 0.5003	–	1528 ± 2.5
298.15 K, 60790 kPa, x2 = 0.7007	–	1506.5 ± 2.5
298.15 K, 75990 kPa, x2 = 0.1014	–	1618.2 ± 2.5
298.15 K, 75990 kPa, x2 = 0.4999	–	1586.8 ± 2.5
298.15 K, 75990 kPa, x2 = 0.5003	–	1587 ± 2.5
298.15 K, 75990 kPa, x2 = 0.7007	–	1566.5 ± 2.5
298.15 K, 75990 kPa, x2 = 0.9391	–	1538.7 ± 2.5
298.15 K, 91180 kPa, x2 = 0.1014	–	1671 ± 2.5
298.15 K, 91180 kPa, x2 = 0.4999	–	1641.7 ± 2.6
